Experimental data reported in patent publication US8883847B2, “Compositions and methods of treatment using modulators of motoneuron diseases” (KineMed, Inc., priority 2006, dated 2014).

Test system: SOD1-G93A TGN mice
Experiment: Noscapine-MK801 treatment of SOD1-G93A TGN mice: gait/stride length, disease onset, mortality
Type: in vivo, mouse
Settings: for Mortality: age at death; for Onset of motor deficits: age at onset
Method: FIG. 6. Noscapine-MK801 combination delays onset of disease and death in SOD1-G93A TGN mice. The one and two-drug treatments were started at an early (i.e., presymptomatic) stage of disease (7 weeks). SOD1-G93A TGN mice were treated 3 times a week with noscapine (0.2 mg/kg body weight) and/or MK-801 (12 mg/kg body weight/day). Mice received noscapine intraperitoneally and MK-801 in drinking water.
Female SOD-1 G93A TGN mice were obtained from Jackson laboratory (strain #2726). The controls were matched litter mates. Treatment groups were three per group. Noscapine was injected intraperitoneal in the thigh 3 times/week (0.2 mg/kg i.p.) and MK801 was administered continuously in drinking water (12 mg/kg/d). Gait analysis was done by the method of Wooley et al., Muscle Nerve 2005 32(1):43-50 and Carter et al. J. Neurosci., 19(8):3248-3257, hereby incorporated by reference in their entirety.
For clinical assessment endpoints scoring was selected as follows:
GROUP CLASSIFICATION: Presymptomatic
Clinical signs: Full mobility and no observable difference in behavior from age-matched controls (Gait or stride length analysis).
GROUP CLASSIFICATION: Onset
Clinical signs: Abnormal Gait or stride length analysis and hindlimb weakness: >40% reduction in stride length vs. age-matched littermates.
GROUP CLASSIFICATION: End Stage (euthanization)
Clinical signs: noticeable and complete hind limb paralysis (which in this strain occurs more on one limb than the other) and inability to right themselves in 5 sec time window. This stage starts usually as the mice are failing the gait analysis test and enter the End stage. Therefore, Transgenic SOD1-G93A TGN mice are euthanized at the onset of noticeable and complete hindlimb paralysis and inability to right themselves in 5 sec time window.

Structure (SMILES) | Mortality | Onset of motor deficits
C[C@]12N[C@H](Cc3ccccc31)c1ccccc12 [MK-801, Dizocilipine] | 112 to 119 days | 105 to 112 days
COc1ccc2c(c1OC)C(=O)O[C@@H]2[C@H]1c2c(cc3c(c2OC)OCO3)CCN1C [Noscapine, noscapine] | 112 to 119 days | 98 to 105 days
